The source of these data is paper PMC2430034, “Structural Development Studies of Subtype-Selective Ligands for Peroxisome Proliferator-Activated Receptors (PPARs) Based on the 3,4-Disubstituted Phenylpropanoic Acid Scaffold as a Versatile Template” (PPAR Research, 2008).

Assay type in all cases: cell-based
One assay concerns the target T1, VDR (Homo sapiens, UniProt P11473).
T1 construct: expressed in transfected cells
T1 sequence (P11473 1-427): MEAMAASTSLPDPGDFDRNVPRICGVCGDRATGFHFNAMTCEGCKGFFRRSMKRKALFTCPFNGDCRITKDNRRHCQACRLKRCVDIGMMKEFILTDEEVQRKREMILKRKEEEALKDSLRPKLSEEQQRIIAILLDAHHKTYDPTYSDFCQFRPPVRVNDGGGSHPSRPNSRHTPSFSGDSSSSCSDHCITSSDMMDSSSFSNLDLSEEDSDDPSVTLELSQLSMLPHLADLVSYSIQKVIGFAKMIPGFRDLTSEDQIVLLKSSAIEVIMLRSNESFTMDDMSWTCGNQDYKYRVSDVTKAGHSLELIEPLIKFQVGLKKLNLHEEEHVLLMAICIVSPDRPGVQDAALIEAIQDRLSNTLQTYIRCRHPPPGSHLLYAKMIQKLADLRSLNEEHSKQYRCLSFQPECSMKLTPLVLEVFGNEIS
Kind of assay: Nuclear receptor cross-reactivity transactivation, VDR.

The target of a further assay is T2, PPARδ (Homo sapiens, UniProt Q03181).
T2 sequence (Q03181 171-441 limits assumed): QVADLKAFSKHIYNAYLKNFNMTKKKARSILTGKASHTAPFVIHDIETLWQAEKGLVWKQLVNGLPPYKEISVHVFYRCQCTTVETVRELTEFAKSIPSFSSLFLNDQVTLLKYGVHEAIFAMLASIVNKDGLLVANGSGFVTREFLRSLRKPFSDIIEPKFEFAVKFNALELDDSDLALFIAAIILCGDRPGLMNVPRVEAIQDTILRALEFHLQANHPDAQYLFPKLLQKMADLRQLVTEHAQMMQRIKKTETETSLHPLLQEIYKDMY
Kind of assay: cell-based. As to conditions: PPAR-GAL4 chimeric receptors, transiently transfected HEK-293 cells; ia = inactive at 10 μM; read-out: Transactivation activity EC50 PPARδ.

Assay [1] concerns the target T3, PPARγ (Homo sapiens, UniProt P37231).
T3 construct: expressed in transfected cells
T3 sequence (P37231 1-505): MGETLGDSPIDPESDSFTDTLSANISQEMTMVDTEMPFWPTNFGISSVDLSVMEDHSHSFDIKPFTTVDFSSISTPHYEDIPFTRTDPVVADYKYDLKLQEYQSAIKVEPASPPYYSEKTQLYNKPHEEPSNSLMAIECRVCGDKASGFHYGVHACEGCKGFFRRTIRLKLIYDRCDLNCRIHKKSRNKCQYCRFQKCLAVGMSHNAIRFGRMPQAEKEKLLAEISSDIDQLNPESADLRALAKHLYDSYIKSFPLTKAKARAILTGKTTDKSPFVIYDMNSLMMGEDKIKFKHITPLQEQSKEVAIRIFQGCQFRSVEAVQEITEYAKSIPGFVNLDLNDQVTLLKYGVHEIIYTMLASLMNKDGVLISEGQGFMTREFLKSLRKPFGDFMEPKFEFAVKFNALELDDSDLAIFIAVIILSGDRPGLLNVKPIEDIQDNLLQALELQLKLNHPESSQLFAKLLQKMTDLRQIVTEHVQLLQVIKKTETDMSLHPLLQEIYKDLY
Kind of assay: Nuclear receptor cross-reactivity transactivation, PPARγ.

Assay [2] concerns the target T4, PPARγ (Homo sapiens, UniProt P37231).
T4 sequence (P37231 238-505 limits assumed): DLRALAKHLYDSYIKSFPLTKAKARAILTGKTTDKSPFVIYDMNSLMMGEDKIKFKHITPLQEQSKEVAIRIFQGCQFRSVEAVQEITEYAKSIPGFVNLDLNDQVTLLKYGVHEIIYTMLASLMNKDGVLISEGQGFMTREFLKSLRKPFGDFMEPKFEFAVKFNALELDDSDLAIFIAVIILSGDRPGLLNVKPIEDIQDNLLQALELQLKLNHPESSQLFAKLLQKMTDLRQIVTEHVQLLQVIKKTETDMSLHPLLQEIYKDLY
Kind of assay: cell-based. As to conditions: read-out: Transactivation activity EC50 PPARγ.

The target in assay [3] is T5, PPARα (Homo sapiens, UniProt Q07869).
T5 sequence (Q07869 200-468 limits assumed): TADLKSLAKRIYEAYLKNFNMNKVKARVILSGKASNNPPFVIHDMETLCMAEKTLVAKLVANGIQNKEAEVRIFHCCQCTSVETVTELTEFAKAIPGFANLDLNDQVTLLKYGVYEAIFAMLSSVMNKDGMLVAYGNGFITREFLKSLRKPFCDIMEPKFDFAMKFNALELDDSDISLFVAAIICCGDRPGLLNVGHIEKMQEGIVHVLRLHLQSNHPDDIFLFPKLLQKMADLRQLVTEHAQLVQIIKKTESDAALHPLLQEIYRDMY
Kind of assay: PPARα-GAL4 chimeric receptor transactivation in HEK-293 cells. As to conditions: PPAR-GAL4 chimeric receptors, transiently transfected HEK-293 cells; ia = inactive at 10 μM.

The next assay addresses T6, LXRα (Homo sapiens, UniProt Q13133).
T6 construct: expressed in transfected cells
T6 sequence (Q13133 1-447): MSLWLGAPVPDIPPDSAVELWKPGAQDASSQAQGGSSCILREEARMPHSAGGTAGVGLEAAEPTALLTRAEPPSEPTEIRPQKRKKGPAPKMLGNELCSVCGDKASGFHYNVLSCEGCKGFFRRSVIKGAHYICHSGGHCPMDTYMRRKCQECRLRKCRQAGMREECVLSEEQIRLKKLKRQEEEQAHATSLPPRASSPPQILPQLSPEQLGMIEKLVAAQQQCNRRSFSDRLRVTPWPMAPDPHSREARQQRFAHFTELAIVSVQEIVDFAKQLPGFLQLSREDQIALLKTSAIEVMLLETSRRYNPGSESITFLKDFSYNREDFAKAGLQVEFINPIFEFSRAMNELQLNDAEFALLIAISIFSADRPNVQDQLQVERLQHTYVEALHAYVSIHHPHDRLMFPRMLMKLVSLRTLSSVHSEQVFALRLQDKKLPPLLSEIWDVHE
Kind of assay: Nuclear receptor cross-reactivity transactivation, LXRα.

Another assay deals with T7, RXRα (Homo sapiens, UniProt P19793).
T7 construct: expressed in transfected cells
T7 sequence (P19793 1-462): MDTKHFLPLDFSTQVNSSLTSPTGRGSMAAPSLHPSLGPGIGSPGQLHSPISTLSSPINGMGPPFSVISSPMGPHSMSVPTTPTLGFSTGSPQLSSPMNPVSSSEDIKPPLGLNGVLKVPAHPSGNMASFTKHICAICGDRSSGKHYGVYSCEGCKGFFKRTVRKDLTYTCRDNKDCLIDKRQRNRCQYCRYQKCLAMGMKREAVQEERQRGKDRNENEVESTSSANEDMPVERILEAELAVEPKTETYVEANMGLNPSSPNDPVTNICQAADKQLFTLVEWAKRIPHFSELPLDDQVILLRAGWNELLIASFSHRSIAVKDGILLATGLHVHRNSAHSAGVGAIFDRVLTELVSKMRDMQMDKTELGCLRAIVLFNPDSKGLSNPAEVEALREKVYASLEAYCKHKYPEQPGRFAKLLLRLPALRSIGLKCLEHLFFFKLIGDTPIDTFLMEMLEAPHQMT
Kind of assay: Nuclear receptor cross-reactivity transactivation, RXRα.

For the next assay, the target named is T8, RARα (Homo sapiens, UniProt P10276).
T8 construct: expressed in transfected cells
T8 sequence (P10276 1-462): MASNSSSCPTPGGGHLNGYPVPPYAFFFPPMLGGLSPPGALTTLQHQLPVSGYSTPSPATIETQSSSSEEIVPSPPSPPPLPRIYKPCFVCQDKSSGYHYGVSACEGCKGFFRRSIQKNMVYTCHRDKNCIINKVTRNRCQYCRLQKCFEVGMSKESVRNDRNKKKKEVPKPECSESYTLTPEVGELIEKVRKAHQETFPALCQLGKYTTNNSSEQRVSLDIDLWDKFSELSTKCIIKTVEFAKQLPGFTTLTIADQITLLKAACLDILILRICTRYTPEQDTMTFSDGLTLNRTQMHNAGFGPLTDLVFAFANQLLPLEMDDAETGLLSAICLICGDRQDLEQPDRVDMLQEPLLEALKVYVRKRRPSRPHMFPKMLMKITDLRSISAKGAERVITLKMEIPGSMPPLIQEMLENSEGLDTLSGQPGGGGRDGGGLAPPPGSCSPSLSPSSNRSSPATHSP
Kind of assay: Nuclear receptor cross-reactivity transactivation, RARα.

For assay [4], the target named is T9, PPARα (Canis lupus familiaris, UniProt Q95N78).
T9 construct: expressed in transfected cells
T9 sequence (Q95N78 1-468): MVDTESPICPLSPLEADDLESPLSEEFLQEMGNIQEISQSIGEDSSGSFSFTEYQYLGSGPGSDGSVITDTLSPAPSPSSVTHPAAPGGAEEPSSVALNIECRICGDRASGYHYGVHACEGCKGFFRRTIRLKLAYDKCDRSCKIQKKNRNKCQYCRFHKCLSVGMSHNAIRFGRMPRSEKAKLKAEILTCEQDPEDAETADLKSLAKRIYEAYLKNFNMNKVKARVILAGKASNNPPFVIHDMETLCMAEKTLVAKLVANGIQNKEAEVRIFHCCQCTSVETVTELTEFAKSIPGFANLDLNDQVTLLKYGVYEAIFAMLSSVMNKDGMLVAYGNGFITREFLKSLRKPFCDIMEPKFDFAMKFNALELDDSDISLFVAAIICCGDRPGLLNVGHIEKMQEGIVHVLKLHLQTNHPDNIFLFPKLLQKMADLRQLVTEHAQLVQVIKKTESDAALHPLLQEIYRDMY
Kind of assay: Dog PPARα transactivation (species differences). As to conditions: CHO-K1 cells (footnote of Table 1).

The target in assay [5] is T5, PPARα. Kind of assay: PPARα-GAL4 chimeric receptor transactivation in CHO-K1 cells. The conditions noted are these: human PPARα; CHO-K1 cells (footnote of Table 1); read-out: Transactivation activity EC50 PPARα Human.
The target in assay [6] is T10, PPARα (Rattus norvegicus, UniProt P37230).
T10 construct: expressed in transfected cells
T10 sequence (P37230 1-468): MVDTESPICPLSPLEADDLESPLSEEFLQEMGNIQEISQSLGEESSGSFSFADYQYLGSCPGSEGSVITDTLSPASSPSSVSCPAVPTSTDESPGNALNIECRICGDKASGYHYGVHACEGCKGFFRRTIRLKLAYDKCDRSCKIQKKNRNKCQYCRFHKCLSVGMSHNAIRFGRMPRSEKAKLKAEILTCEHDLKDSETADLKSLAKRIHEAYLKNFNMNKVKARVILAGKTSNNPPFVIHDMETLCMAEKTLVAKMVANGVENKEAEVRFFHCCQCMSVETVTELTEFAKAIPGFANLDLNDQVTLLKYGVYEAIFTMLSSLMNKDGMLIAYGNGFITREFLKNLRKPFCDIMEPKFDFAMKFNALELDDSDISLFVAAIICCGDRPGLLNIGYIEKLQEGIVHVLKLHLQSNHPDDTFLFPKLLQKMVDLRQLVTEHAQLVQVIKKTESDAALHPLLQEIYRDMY
Kind of assay: Rat PPARα transactivation (species differences). The conditions noted are these: CHO-K1 cells (footnote of Table 1).

The mark [7] stands for this setting: concentrations up to 1 μM (Figure 4).
Setting [8] is: concentrations up to 300 nM (Figure 7).

Read-outs that look alike come from different tables or passages of the source.

`CC[C@@H](Cc1ccc(OC)c(CNC(=O)c2ccc(C(F)(F)F)cc2F)c1)C(=O)O` [Compound 41, (S)-2-{3-[(2-fluoro-4-trifluoromethylbenzoylamino)methyl]-4-methoxybenzyl}butyric acid]: the “activation of VDR” value on VDR (setting [7]) was “did not significantly activate”. Further, the EC50 turned out to be 12 nM on PPARδ; 1900 nM on PPARγ [2] (PPAR-GAL4 chimeric receptors, transiently transfected HEK-293 cells, ia = inactive at 10 μM); 10 nM on PPARα [3]. For the same compound, the “activation of PPARγ” value at PPARγ [1] (setting [7]) is recorded as “did not significantly activate”. Also, the “activation of LXRα” value on LXRα (setting [7]) is on record as “did not significantly activate”. The “activation of RXRα” value on RXRα (setting [7]) is given as “did not significantly activate”. For the same compound, at RARα (setting [7]), the “activation of RARα” value was “did not significantly activate”.

Take `CCCCOc1ccc(C[C@H](CC)C(=O)O)cc1CNC(=O)c1ccc(C(F)(F)F)cc1F` [Compound 65, (S)-2-{3-[(2-fluoro-4-trifluoromethylbenzoylamino)methyl]-4-buthoxy-benzyl}butyric acid]: at VDR (setting [8]), the “activation of VDR” value is recorded as “did not significantly activate”. Also, the figures for the EC50 on PPARδ, on PPARγ [2] and on PPARα [3] were 0.91 nM, 1100 nM and 250 nM, respectively. Besides, the “activation of PPARγ” value at PPARγ [1] (setting [8]) was “did not significantly activate”. The “activation of LXRα” value on LXRα (setting [8]) is “did not significantly activate”. Also, the “activation of RXRα” value on RXRα (setting [8]) is on record as “did not significantly activate”. For the same compound, the “activation of RARα” value on RARα (setting [8]) is given as “did not significantly activate”.

As to `CC[C@@H](Cc1ccc(OC)c(C(=O)NCc2ccc(C(F)(F)F)cc2)c1)C(=O)O` [KCL, (S)-2-[4-methoxy-3-(4-trifluoromethylbenzylcarbamoyl)phenylmethyl]butyric acid], the results for the EC50 on PPARα [4], at PPARα [5] and on PPARα [6] were 160 nM, 60 nM and 5200 nM, respectively.

Broadly, the EC50 is the midpoint of the concentration-response curve.
